ChEMBL document CHEMBL1909046, “DrugMatrix in vitro pharmacology data”

Key:
[1] = DRUGMATRIX: Calcium Channel Type L, Benzothiazepine radioligand binding (ligand: [3H] Diltiazem); type: cell membranes, Rattus norvegicus, Wistar, Brain, Membrane; settings: Not Active = under 50% inhibition at 10 µM
[2] = target: Aldo-keto reductase family 1 member B1 (Rattus norvegicus, UniProt P07943); assay: biochemical; type: tissue-based, Lens of camera-type eye;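 note: inhibition of aldose reductase enzyme activity, measured with DL-glyceraldehyde as the substrate; in other assays of this panel Not Active means under 50% inhibition at 10 µM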
[3] = DRUGMATRIX: Imidazoline I2, Central radioligand binding (ligand: [3H] Idazoxan); type: cell membranes, Rattus norvegicus, Wistar, Cerebral cortex, Membrane; settings: Not Active = under 50% inhibition at 10 µM
[4] = target: T1, C-X-C chemokine receptor type 1 (Homo sapiens, UniProt P25024); note: in other assays of this panel Not Active means under 50% inhibition at 10 µM
T1 sequence (P25024 whole entry): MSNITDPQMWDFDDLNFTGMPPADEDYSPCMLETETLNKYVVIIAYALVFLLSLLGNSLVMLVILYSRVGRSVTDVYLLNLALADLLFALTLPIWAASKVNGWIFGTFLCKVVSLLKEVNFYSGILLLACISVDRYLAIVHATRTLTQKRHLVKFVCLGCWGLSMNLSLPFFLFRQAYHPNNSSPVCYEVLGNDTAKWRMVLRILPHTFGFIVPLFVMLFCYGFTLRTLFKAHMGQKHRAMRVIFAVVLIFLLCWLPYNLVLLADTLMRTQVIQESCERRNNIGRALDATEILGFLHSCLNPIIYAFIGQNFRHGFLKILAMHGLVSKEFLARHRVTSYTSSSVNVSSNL

B2 bradykinin receptor = target: T2, B2 bradykinin receptor (Homo sapiens, UniProt P30411); type: cell membranes, Membrane; settings: chem-1; note: in other assays of this panel Not Active means under 50% inhibition at 10 µM
T2 sequence (P30411 whole entry): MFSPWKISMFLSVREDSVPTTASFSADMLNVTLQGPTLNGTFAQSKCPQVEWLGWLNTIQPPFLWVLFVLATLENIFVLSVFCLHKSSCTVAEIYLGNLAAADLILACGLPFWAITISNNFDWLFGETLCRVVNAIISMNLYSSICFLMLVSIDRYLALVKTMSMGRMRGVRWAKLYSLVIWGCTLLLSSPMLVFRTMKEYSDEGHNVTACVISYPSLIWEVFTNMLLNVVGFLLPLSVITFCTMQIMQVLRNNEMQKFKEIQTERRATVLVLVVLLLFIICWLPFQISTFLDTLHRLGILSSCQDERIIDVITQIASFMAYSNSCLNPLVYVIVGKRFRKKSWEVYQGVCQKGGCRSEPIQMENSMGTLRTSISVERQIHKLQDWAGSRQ

Cytochrome P450 2A6 = target: T3, Cytochrome P450 2A6 (Homo sapiens, UniProt P11509); settings: bti-tn-5b1-4; note: in other assays of this panel Not Active means under 50% inhibition at 10 µM
T3 sequence (P11509 whole entry): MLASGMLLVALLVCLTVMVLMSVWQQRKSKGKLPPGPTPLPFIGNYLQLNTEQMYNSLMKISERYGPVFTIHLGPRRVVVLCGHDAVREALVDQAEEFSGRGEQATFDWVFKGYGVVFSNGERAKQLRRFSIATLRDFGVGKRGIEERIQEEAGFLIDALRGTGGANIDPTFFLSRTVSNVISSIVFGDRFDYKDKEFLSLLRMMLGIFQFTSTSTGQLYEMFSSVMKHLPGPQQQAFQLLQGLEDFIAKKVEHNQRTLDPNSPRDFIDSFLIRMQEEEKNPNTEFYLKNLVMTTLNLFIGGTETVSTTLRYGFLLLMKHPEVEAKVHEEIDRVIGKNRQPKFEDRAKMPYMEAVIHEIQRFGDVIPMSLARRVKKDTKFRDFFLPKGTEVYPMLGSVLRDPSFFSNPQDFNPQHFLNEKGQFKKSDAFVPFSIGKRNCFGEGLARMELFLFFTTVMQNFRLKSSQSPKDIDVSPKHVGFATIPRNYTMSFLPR

Cytochrome P450 2C19 = Cytochrome P450 2C19 (Homo sapiens, UniProt P33261); settings: bti-tn-5b1-4; note: in other assays of this panel Not Active means under 50% inhibition at 10 µM
Sequence of Cytochrome P450 2C19 (P33261 whole entry): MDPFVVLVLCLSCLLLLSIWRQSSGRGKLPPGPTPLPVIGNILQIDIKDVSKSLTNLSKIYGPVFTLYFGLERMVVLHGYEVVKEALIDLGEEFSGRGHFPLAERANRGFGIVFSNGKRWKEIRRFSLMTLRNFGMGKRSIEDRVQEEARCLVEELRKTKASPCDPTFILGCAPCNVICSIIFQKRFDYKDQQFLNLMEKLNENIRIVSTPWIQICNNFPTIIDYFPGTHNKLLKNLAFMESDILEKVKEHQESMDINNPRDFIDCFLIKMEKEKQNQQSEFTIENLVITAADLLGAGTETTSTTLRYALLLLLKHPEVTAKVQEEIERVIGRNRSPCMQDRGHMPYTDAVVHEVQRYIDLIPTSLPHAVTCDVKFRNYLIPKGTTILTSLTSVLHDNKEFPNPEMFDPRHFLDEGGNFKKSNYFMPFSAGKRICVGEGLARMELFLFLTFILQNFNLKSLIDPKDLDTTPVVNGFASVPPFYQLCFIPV

Compound | IC50 [1] | Ki [1] | IC50 [2] | IC50 [3] | Ki [3] | IC50 [4] | IC50 (B2 bradykinin receptor) | IC50 (Cytochrome P450 2A6) | Ki (Cytochrome P450 2A6) | IC50 (Cytochrome P450 2C19) | Ki (Cytochrome P450 2C19) | Ki [2] | Ki [4] | Ki (B2 bradykinin receptor) | IC50 ([3]; read-out: IC50) | Ki ([3]; read-out: Ki)
CCS(=O)(=O)CCn1c([N+](=O)[O-])cnc1C [TINIDAZOLE] | Not Active | Not Active | Not Active | Not Active | Not Active | Not Active | Not Active | – | – | – | – | – | – | – | – | –
Nc1nc2c(c(=O)[nH]1)N(C=O)C(CNc1ccc(C(=O)N[C@@H](CCC(=O)O)C(=O)O)cc1)CN2 (stereo partly specified) [LEUCOVORIN] | Not Active | Not Active | Not Active | Not Active | Not Active | Not Active | Not Active | Not Active | Not Active | Not Active | Not Active | – | – | – | – | –
CC(=O)O[C@H]1C[C@@H]2CC[C@@H]3[C@H](CC[C@@]4(C)[C@H]3C[C@H]([N+]3(C)CCCCC3)[C@@H]4OC(C)=O)[C@@]2(C)C[C@@H]1N1CCCCC1.[Br-] [VECURONIUM BROMIDE] | Not Active | Not Active | Not Active | Not Active | Not Active | Not Active | Not Active | Not Active | Not Active | Not Active | Not Active | – | – | – | – | –
C[C@@H](O)[C@H]1C(=O)N2C(C(=O)O)=C(S[C@@H]3CN[C@H](C(=O)N(C)C)C3)[C@H](C)[C@H]12 [MEROPENEM] | Not Active | Not Active | Not Active | Not Active | Not Active | Not Active | Not Active | Not Active | Not Active | Not Active | Not Active | – | – | – | – | –
Cc1cn([C@H]2C[C@H](N=[N+]=[N-])[C@@H](CO)O2)c(=O)[nH]c1=O [ZIDOVUDINE] | Not Active | Not Active | Not Active | Not Active | Not Active | Not Active | Not Active | Not Active | Not Active | Not Active | Not Active | – | – | – | – | –
COc1cc(N)nc2[nH]c(-c3ccc(F)cc3)c(-c3ccncc3)c12 | Not Active | Not Active | Not Active | Not Active | Not Active | Not Active | Not Active | Not Active | Not Active | Not Active | Not Active | – | – | – | – | –
CN1C2CCCC1CC(NC(=O)c1nn(C)c3ccccc13)C2 (stereo unspecified) [GRANISETRON] | – | – | Not Active | – | – | Not Active | Not Active | Not Active | Not Active | Not Active | Not Active | – | – | – | – | –
THIMEROSAL | Not Active | Not Active | Not Active | Not Active | Not Active | Not Active | Not Active | Not Active | Not Active | Not Active | Not Active | Not Active | Not Active | Not Active | – | –
C[C@]12CC[C@H]3[C@@H](CCC4=CC(=O)CC[C@@]43C)[C@@H]1CC[C@@H]2O [TESTOSTERONE] | Not Active | Not Active | Not Active | Not Active | Not Active | Not Active | Not Active | Not Active | Not Active | Not Active | Not Active | – | – | – | – | –
CNS(=O)(=O)Cc1ccc2[nH]cc(CCN(C)C)c2c1 | Not Active | Not Active | Not Active | Not Active | Not Active | Not Active | Not Active | Not Active | Not Active | Not Active | Not Active | – | – | – | – | –
CO[C@H]1C[C@@H]2CC[C@@H](C)[C@@](O)(O2)C(=O)C(=O)N2CCCC[C@H]2C(=O)O[C@H]([C@H](C)C[C@@H]2CC[C@@H](O)[C@H](OC)C2)CC(=O)[C@H](C)/C=C(\C)[C@@H](O)[C@@H](OC)C(=O)[C@H](C)C[C@H](C)/C=C/C=C/C=C/1C [SIROLIMUS] | Not Active | Not Active | Not Active | Not Active | Not Active | Not Active | Not Active | Not Active | Not Active | – | – | – | – | – | – | –
CC(C)OC(=O)C(C)(C)Oc1ccc(C(=O)c2ccc(Cl)cc2)cc1 [FENOFIBRATE] | – | – | Not Active | – | – | Not Active | Not Active | Not Active | Not Active | Not Active | Not Active | – | – | – | – | –
CN(CCOc1ccc(CC2SC(=O)NC2=O)cc1)c1ccccn1 (stereo unspecified) [ROSIGLITAZONE] | Not Active | Not Active | Not Active | Not Active | Not Active | Not Active | Not Active | Not Active | Not Active | Not Active | Not Active | – | – | – | – | –
C=C(C)[C@H]1Cc2c(ccc3c2O[C@@H]2COc4cc(OC)c(OC)cc4[C@@H]2C3=O)O1 [ROTENONE] | Not Active | Not Active | Not Active | Not Active | Not Active | Not Active | Not Active | Not Active | Not Active | – | – | – | – | – | – | –
Nc1ccc(S(=O)(=O)Nc2nccs2)cc1 [SULFATHIAZOLE] | Not Active | Not Active | Not Active | Not Active | Not Active | Not Active | Not Active | Not Active | Not Active | Not Active | Not Active | – | – | – | – | –
OCCN1CCN(CCCN2c3ccccc3Sc3ccc(C(F)(F)F)cc32)CC1 [FLUPHENAZINE] | – | – | Not Active | – | – | Not Active | Not Active | Not Active | Not Active | – | – | – | – | – | – | –
COc1ccc(CN2CCNCC2)c(OC)c1OC [TRIMETAZIDINE] | Not Active | Not Active | Not Active | Not Active | Not Active | Not Active | Not Active | – | – | – | – | – | – | – | – | –
CC[C@@H](CO)NC(=O)[C@@H]1C=C2c3cccc4c3c(cn4C)C[C@H]2N(C)C1 [METHYSERGIDE] | – | – | Not Active | – | – | Not Active | Not Active | Not Active | Not Active | Not Active | Not Active | – | – | – | – | –
CN[C@@H]1[C@H](O)[C@H](NC)[C@H]2O[C@@]3(O)C(=O)C[C@@H](C)O[C@H]3O[C@@H]2[C@H]1O [SPECTINOMYCIN] | Not Active | Not Active | Not Active | Not Active | Not Active | Not Active | Not Active | Not Active | Not Active | – | – | – | – | – | – | –
CC(=O)Nc1nnc(S(N)(=O)=O)s1 [ACETAZOLAMIDE] | – | – | Not Active | – | – | Not Active | Not Active | Not Active | Not Active | Not Active | Not Active | – | – | – | – | –
CCN(CC)CC#CCOC(=O)C(O)(c1ccccc1)C1CCCCC1 (stereo unspecified) [OXYBUTYNIN] | – | – | Not Active | – | – | Not Active | Not Active | Not Active | Not Active | – | – | – | – | – | – | –
O=c1[nH]c2ccccc2n1CCCN1CCC(n2c(=O)[nH]c3cc(Cl)ccc32)CC1 [DOMPERIDONE] | – | – | Not Active | – | – | Not Active | Not Active | – | – | – | – | – | – | – | – | –
O=c1n(CCCN2CCN(c3cccc(Cl)c3)CC2)nc2ccccn12 [TRAZODONE] | – | – | Not Active | – | – | Not Active | Not Active | Not Active | Not Active | Not Active | Not Active | – | – | – | – | –
C#CCN(C)[C@H](C)Cc1ccccc1 [SELEGILINE] | Not Active | Not Active | Not Active | – | – | Not Active | Not Active | Not Active | Not Active | – | – | – | – | – | 1610 nM | 1080 nM
